Assay in all cases: Kinase panel profiling at 1 µmol/L (MSA or IMAP), percentage inhibition
Assay type in all cases: biochemical

Assay [1] deals with panel of 255 wild-type kinases (Homo sapiens, UniProt Q13464). The conditions noted are these: read-out: %-inhibition at 1 µmol/L, ROCK1.
Assay [2] has as its target panel of 255 wild-type kinases (Homo sapiens, UniProt P00519). The conditions noted are these: read-out: %-inhibition ABL.
Assay [3] deals with panel of 255 wild-type kinases (Homo sapiens, UniProt P35916). The following applies: read-out: %-inhibition at 1 µmol/L, FLT4.
The target in assay [4] is T1, panel of 255 wild-type kinases (Homo sapiens, UniProt Q02156).
T1 sequence (Q02156 1-737): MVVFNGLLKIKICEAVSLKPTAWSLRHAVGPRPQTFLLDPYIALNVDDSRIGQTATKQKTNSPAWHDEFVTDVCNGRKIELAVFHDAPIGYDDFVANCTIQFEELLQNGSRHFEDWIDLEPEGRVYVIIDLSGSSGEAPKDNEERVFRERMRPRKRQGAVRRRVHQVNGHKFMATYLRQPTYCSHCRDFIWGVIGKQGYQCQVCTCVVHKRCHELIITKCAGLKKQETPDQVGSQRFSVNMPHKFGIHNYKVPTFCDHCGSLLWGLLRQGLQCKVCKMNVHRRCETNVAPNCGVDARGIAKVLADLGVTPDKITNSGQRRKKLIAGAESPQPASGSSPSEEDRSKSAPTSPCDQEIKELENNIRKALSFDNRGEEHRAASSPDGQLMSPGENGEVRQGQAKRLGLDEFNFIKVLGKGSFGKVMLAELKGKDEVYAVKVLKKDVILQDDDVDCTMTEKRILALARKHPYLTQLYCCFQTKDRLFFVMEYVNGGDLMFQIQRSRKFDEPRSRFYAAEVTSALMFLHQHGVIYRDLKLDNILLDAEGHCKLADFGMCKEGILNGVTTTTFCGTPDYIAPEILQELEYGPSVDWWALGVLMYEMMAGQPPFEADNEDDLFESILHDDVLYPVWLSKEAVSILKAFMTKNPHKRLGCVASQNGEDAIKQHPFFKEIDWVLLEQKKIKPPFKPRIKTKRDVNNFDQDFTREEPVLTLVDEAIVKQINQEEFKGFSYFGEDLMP
The following applies: read-out: %-inhibition at 1 µmol/L, PKCε.

Assay [5] concerns the target panel of 255 wild-type kinases (Homo sapiens, UniProt Q06187). The conditions noted are these: read-out: %-inhibition BTK.
Assay [6] deals with panel of 255 wild-type kinases (Homo sapiens, UniProt Q9NYA1). The conditions noted are these: read-out: %-inhibition at 1 µmol/L, SPHK1.
The target of assay [7] is T2, panel of 255 wild-type kinases (Homo sapiens, UniProt O15264).
T2 sequence (O15264 1-365): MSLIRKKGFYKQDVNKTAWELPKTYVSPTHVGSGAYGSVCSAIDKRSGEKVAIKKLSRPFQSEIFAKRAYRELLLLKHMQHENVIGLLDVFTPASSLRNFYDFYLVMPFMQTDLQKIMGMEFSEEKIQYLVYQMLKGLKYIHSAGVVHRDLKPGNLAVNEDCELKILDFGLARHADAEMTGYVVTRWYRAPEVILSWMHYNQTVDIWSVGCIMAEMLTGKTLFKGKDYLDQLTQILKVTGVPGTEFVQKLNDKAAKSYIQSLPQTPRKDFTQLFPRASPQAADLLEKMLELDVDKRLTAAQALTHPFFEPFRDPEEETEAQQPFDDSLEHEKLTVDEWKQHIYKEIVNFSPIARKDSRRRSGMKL
The conditions noted are these: read-out: %-inhibition, p38δ.

The target in assay [8] is T3, panel of 255 wild-type kinases (Homo sapiens, UniProt Q9UHD2).
T3 sequence (Q9UHD2 1-729): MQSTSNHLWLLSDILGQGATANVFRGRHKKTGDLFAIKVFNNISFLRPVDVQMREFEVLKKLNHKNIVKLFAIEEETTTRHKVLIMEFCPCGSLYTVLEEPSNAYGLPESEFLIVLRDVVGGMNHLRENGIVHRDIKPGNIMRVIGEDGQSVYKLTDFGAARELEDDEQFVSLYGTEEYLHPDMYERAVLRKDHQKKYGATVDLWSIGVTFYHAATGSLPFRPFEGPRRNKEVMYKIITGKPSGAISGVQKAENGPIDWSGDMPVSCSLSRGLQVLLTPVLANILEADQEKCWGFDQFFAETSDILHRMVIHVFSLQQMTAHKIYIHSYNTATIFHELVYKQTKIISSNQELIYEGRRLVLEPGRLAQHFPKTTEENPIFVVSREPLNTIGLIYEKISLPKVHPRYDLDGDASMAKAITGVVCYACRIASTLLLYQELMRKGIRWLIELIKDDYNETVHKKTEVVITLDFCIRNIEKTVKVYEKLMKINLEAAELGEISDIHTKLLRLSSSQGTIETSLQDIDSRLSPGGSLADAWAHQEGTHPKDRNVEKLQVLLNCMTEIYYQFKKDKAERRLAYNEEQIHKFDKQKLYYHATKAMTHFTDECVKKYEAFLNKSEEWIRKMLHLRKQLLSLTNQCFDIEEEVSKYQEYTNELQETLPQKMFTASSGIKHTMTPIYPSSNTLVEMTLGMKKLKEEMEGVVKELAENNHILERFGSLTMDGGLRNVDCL
The following applies: read-out: %-inhibition at 1 µmol/L, TBK1.

Assay [9] concerns the target panel of 255 wild-type kinases (Homo sapiens, UniProt O60674). The conditions noted are these: read-out: %-inhibition at 1 µmol/L, JAK2.
Where [10] appears, read: kinase ROCK1, 1 µmol/L single concentration.
Where [11] appears, read: ABL kinase assay, 1 µmol/L single concentration.
The mark [12] stands for this setting: kinase FLT4, 1 µmol/L single concentration.
The mark [13] stands for this setting: kinase PKCε, 1 µmol/L single concentration.
Where [14] appears, read: BTK kinase assay, 1 µmol/L single concentration.
Where [15] appears, read: kinase SPHK1, 1 µmol/L single concentration.
Setting [16] is: p38δ, 1 µmol/L single concentration.
The mark [17] stands for this setting: kinase TBK1, 1 µmol/L single concentration.
Setting [18] is: kinase JAK2, 1 µmol/L single concentration.

Where two headings read alike, the source gives them in different places.

With `Cn1cc(-c2cc3c(N4CCN(c5ncc([C@@](C)(N)c6ccc(F)cc6)cn5)CC4)ncnn3c2)cn1` [avapritinib], the inhibition at 1 µM in assay [1] (setting [10]) was 2%; in [2] (setting [11]), 57%; in [3] (setting [12]), 88%; in assay [4] (setting [13]) it was -2.54%; in [5] (setting [14]), 13%; in assay [6] (setting [15]), -1.72%. In addition, the inhibition at 1 µM in [7] (setting [16]) is 0.654%; in [8] (setting [17]) it was -1.13%; in [9] (setting [18]), 52%.
In the case of `C[C@H](Nc1ncnc2nc[nH]c12)c1cc2cccc(Cl)c2c(=O)n1-c1ccccc1` [duvelisib], the inhibition at 1 µM in [1] (setting [10]) was -4.36%; in [2] (setting [11]), -2%; in assay [3] (setting [12]) it was 0.523%; in assay [4] (setting [13]) it was 13%; in assay [5] (setting [14]), 1.85%; in assay [6] (setting [15]), -3.25%. Also, the results for the inhibition at 1 µM in assay [7] (setting [16]), in [8] (setting [17]) and in assay [9] (setting [18]) were -3%, -2.46% and 3.29%, respectively.
For `COc1cc2ncnc(Nc3ccc(F)c(Cl)c3)c2cc1NC(=O)/C=C/CN1CCCCC1` [dacomitinib], the inhibition at 1 µM in assay [1] (setting [10]) was -2.68%; in assay [3] (setting [12]), 34%; in assay [4] (setting [13]), 8%; in assay [5] (setting [14]), 43%; in [6] (setting [15]), -15%; in [7] (setting [16]), 0.0743%. In addition, the inhibition at 1 µM was found to be 17% in assay [8] (setting [17]) and 0.856% in [9] (setting [18]).
On to `CCN1CCN(c2ccc(Nc3cc(N(C)C(=O)Nc4c(Cl)c(OC)cc(OC)c4Cl)ncn3)cc2)CC1` [infigratinib], for which the inhibition at 1 µM in assay [1] (setting [10]) was 0.396%; in assay [2] (setting [11]), 10%; in [3] (setting [12]), 92%; in assay [4] (setting [13]) it was 4.68%; in [6] (setting [15]), -14%; in assay [7] (setting [16]), -4%. Further, the inhibition at 1 µM is -4% in [8] (setting [17]) and 2.11% in [9] (setting [18]).
With `Cn1cnc2c(F)c(Nc3ccc(Br)cc3Cl)c(C(=O)NOCCO)cc21` [selumetinib], the inhibition at 1 µM was -1.15% in assay [1] (setting [10]); -6.58% in [2] (setting [11]); 8% in assay [3] (setting [12]); 0.617% in [4] (setting [13]); 52% in assay [5] (setting [14]); -8% in assay [6] (setting [15]). Further, the inhibition at 1 µM in [7] (setting [16]) was -4%; in assay [8] (setting [17]), -1.18%; in assay [9] (setting [18]) it was -0.0152%.
Turning to `CNC(=O)c1ccc(-c2cnc3ncc(Cc4ccc5ncccc5c4)n3n2)cc1F` [capmatinib], the inhibition at 1 µM was 1.06% in [1]; -1.84% in assay [2]; 10% in assay [3]; -19% in [4]; 8% in [5]; -5.27% in assay [6]. For the same compound, the inhibition at 1 µM in [7] was -4%; in assay [8], -2.83%; in [9] it was 1.58%.
On to `COC(=O)N[C@@H](C)CNc1nccc(-c2cn(C(C)C)nc2-c2cc(Cl)cc(NS(C)(=O)=O)c2F)n1` [encorafenib], for which the inhibition at 1 µM in assay [1] (setting [10]) was 0.403%; in assay [2] (setting [11]), -5.41%; in [3] (setting [12]) it was 17%; in assay [4] (setting [13]) it was -7%; in [5] (setting [14]) it was -1.36%; in assay [6] (setting [15]), -5.65%. Besides, the inhibition at 1 µM is 5% in assay [7] (setting [16]), 1.21% in assay [8] (setting [17]) and 2.62% in [9] (setting [18]).
Regarding `Cc1cc(Nc2ncnc3ccc(NC4=NC(C)(C)CO4)cc23)ccc1Oc1ccn2ncnc2c1` [tucatinib], the inhibition at 1 µM in assay [1] (setting [10]) was -0.767%; in [2] (setting [11]), -3%; in [3] (setting [12]), 13%; in assay [4] (setting [13]), -0.0549%; in [5] (setting [14]), 21%; in assay [6] (setting [15]) it was -6.37%. The inhibition at 1 µM in [7] (setting [16]) was -0.0555%; in assay [8] (setting [17]), -3%; in assay [9] (setting [18]), 4.51%.
As to `C=CC(=O)N1CCC([C@@H]2CCNc3c(C(N)=O)c(-c4ccc(Oc5ccccc5)cc4)nn32)CC1` [zanubrutinib], the inhibition at 1 µM in assay [1] (setting [10]) is -1.57%; in assay [2] (setting [11]) it was -4.52%; in assay [3] (setting [12]), 6.34%; in assay [4] (setting [13]), 8%; in [6] (setting [15]) it was -15%; in [7] (setting [16]), -6.43%. Further, the inhibition at 1 µM in assay [8] (setting [17]) was 0.115%; in assay [9] (setting [18]) it was -0.375%.
Take `Cn1cnc2c(F)c(Nc3ccc(Br)cc3F)c(C(=O)NOCCO)cc21` [binimetinib]: the inhibition at 1 µM in assay [1] (setting [10]) is -7%; in assay [2] (setting [11]) it was -1.53%; in assay [3] (setting [12]), 3.37%; in assay [4] (setting [13]), 11%; in [5] (setting [14]) it was -3.75%; in assay [6] (setting [15]), -26%. The inhibition at 1 µM in assay [7] (setting [16]) was 3.49%; in assay [8] (setting [17]), 0.416%; in assay [9] (setting [18]) it was -0.409%.
For `COc1ccc(CN2C3CC2CN(c2ccc(-c4cc(OCC(C)(C)O)cn5ncc(C#N)c45)cn2)C3)cn1` [selpercatinib], the inhibition at 1 µM in [1] (setting [10]) was 3.51%; in assay [2] (setting [11]) it was 16%; in assay [3] (setting [12]), 101%; in assay [4] (setting [13]), 7%; in assay [5] (setting [14]), 17%; in [6] (setting [15]) it was -13%. Also, the inhibition at 1 µM in assay [7] (setting [16]) was -6.33%; in assay [8] (setting [17]), 12%; in assay [9] (setting [18]) it was 27%.
Consider `CN1CCN(c2ccc(C(=O)Nc3n[nH]c4ccc(Cc5cc(F)cc(F)c5)cc34)c(NC3CCOCC3)c2)CC1` [entrectinib], for which the inhibition at 1 µM in [1] (setting [10]) is 4.51%; in assay [2] (setting [11]), 77%; in [4] (setting [13]) it was 27%; in assay [5] (setting [14]) it was 97%; in assay [6] (setting [15]) it was -4%; in [7] (setting [16]), -3%. In addition, the inhibition at 1 µM in [8] (setting [17]) was 8%; in assay [9] (setting [18]) it was 100%.
